This is an account of results in patent publication US20180078916A1, “LIGNIN-BASED SURFACTANTS” (CARNEGIE MELLON UNIVERSITY, priority 2015, published 2018).

For the test, the system named is corn plants. The test is described as follows: clethodim application to corn plants with tank-mix adjuvants, % inhibition versus untreated control plants. The settings on record: clethodim 1 fluid ounce/acre without tank-mix adjuvants, 7 days following treatment. Format: in vivo. The source says:
Various surfactants are used as adjuvants for agrochemicals to enhance deposition and penetration through plant surfaces. Two commercial tank-mix adjuvant systems that may be used for comparison are PRIME OIL® and SUPERB® HC (available from Winfield Solutions, LLC of Shoreview, Minn.), which are high surfactant oil concentrates. Representative studied were based on delivery of clethodim at 1 fluid ounce/acre, a commercial herbicide that inhibits growth of certain plants. A measure of effectiveness was the % inhibition (with 0% being no inhibition) compared to untreated control plants. Photographs (a)-(e) of FIG. 11 provide images of corn plants (corn being a common contaminant crop in soybean fields) treated with different formulations 7 days after treatment. Comparatively good results are obtained with clethodim and KLPEG900. Lignin adjuvant activity appeared to be higher at 0.05% v/v that 0.1% v/v.
FIG. 12 illustrates a graph wherein % inhibition is plotted for the different formulations 7 days following treatment.

For the compound `CCSC(C)CC1CC(=O)C(/C(CC)=N/OC/C=C/Cl)=C(O)C1` (stereo not shown) [Clethodim, clethodim], the “% inhibition” value was found to be 54.4%.
